Measurements reported in patent US5273903A, “Biotechnological process for the production of S-(+)-2,2-dimethylcyclopropanecarboxamide” (Lonza Ltd., priority 1991, dated 1993).
Where “and” joins values, the source holds several entries; their conditions need not be identical. Identical values can stand only once.

Columns and labels:
[1] = system: R-(-)-2,2-DMCPCA-hydrolase; experiment: Determination of activity of R-(-)-2,2-DMCPCA-hydrolase, microorganism suspension; format: cell-based, Comamonas acidovorans A:18 (DSM No. 6315); details: phosphate buffer 10 mmol pH 7.0, 0.2 percent by weight substrate, 3 hours
Description: To determine the activity of the hydrolase, the microorganism suspension was adjusted to an optical density of 0.5 at 650 nm. As a medium, a phosphate buffer (10 mmol), pH 7.0, with 0.2 percent by weight of R,S-2,2-DMCPCA, was used. […] The NH4^+ released by the hydrolase or the R-(-)-2,2-DMCPCS was measured and the activity reacted as g of R-(-)-2,2-DMCPCA was expressed /1/h/ optical density at 650 nm, provided that 1 mmol of formed NH4^+ equals 1 mmol of reacted R-(-)-2,2-DMCPCA.

[2] = system: R-(-)-2,2-DMCPCA-hydrolase; experiment: Hydrolase activity during biotransformation with whole cells; format: cell-based, Bacterium sp. VIII:II (DSM No. 6316); details: 0.2 percent by weight substrate; otherwise conditions of Example 3
Description: (§1) To determine the activity of the hydrolase, the microorganism suspension was adjusted to an optical density of 0.5 at 650 nm. As a medium, a phosphate buffer (10 mmol), pH 7.0, with 0.2 percent by weight of R,S-2,2-DMCPCA, was used. This suspension was incubated for 3 hours at 30° C. with shaking. The NH4^+ released by the hydrolase or the R-(-)-2,2-DMCPCS was measured and the activity reacted as g of R-(-)-2,2-DMCPCA was expressed /1/h/ optical density at 650 nm, provided that 1 mmol of formed NH4^+ equals 1 mmol of reacted R-(-)-2,2-DMCPCA.
(§2) Comamonas acidovorans A:18 was incubated on mineral salt medium-agar plates with glycerin as a C-source and ammonium sulfate as an N-source for 2 days at 30° C. With these plated-out microorganisms, an initial culture medium with the same composition was inoculated and incubated for 2 days at 30° C. […] After an incubation of about 25 hours at 37° C., R-(-)-2,2-DMCPCA was completely reacted to R-(-)-2,2-DMCPCS, which corresponded to an optical purity (ee) of 100 percent and an analytically measured yield in S-(+)-2,2-DMCPCA of 46.7 percent. […]
In contrast to Example 3, the biotransformation in this microorganism was performed with 0.2 percent by weight of R,S-(±)-2,2-DMCPCA, and the activity of the hydrolase was determined as 0.13 g/1/h/OD650nm.

[3] = system: R-(-)-2,2-DMCPCA-hydrolase; experiment: as above; format: cell-based, Pseudomonas sp. NSAK:42 (DSM No. 6433); details: 0.2 percent by weight substrate; otherwise conditions of Example 3
Description: as §1, §2
Analogously to Example 1, Pseudomonas sp. […] The biotransformation was performed with 0.2 percent by weight of R,S-(±)-2,2-DMCPCA, and the activity of the hydrolase was determined as 0.34 g/1/h/OD650nm.

[4] = system: immobilized biocatalyst (polyethylene imine/glutaraldehyde treated cells); experiment: Activity of immobilized cells (immobilized biocatalyst); format: cell-based, Comamonas acidovorans A:18; details: cells immobilized by polyethylene imine/glutaraldehyde treatment
Description: After induction (corresponding to Example 3), the cells of Comamonas acidovorans A:18, were harvested. These cells were immobilized by a polyethylene imine/glutaraldehyde treatment (corresponding to Czechoslovakian Patent No. 251,111). […] The dry weight of the biocatalyst corresponded to 32 percent of the moist weight. Then, the biocatalyst (with 55 g moist weight) was suspended in 800 ml of boric acid (10 mM, pH 9.0) with 16 g of R,S-(±)-2,2-DMCPCA. After an incubation time of 68.8 hours at 37 C and at a stirring speed of 200 rpm, R-(-)-2,2-DMCPCA was completely reacted to R-(-)-2,2-DMCPCS, which corresponded to an optical purity (ee) of 98.2 percent and an analytically measured yield in S-(+)-2,2-DMCPCA of 40 percent.

[5] = system: cell-free enzyme extract (R-(-)-2,2-DMCPCA-hydrolase); experiment: Activity of cell-free enzyme extract; format: biochemical, Comamonas acidovorans A:18; details: 30 °C; phosphate buffer 10 mM pH 7.0; 0.2 percent by weight R,S-(±)-2,2-DMCPCA; about 0.8 mg of protein
Description: After induction, the cells of Comamonas acidovorans A:18 were concentrated to an optical density at 650 nm from 210 to 95 ml in the HEPES buffer (10 mM, pH 7.0). Then, the cells were broken down twice in the French press at a pressure of 1200 bars. To obtain a cell-free enzyme extract, all of this material was then centrifuged at 20,000 rpm for 20 minutes. In this cell-free enzyme extract, the amount of protein (measured according to the Bradford method) was then determined as 39.3 mg of protein/ml. To determine the activity of these cell-free enzymes, 20 microliters (about 0.8 mg of protein) of this cell-free enzyme extract was taken up in 4 ml of phosphate buffer (10 mM, pH 7.0), containing 0.2 percent by weight of R,S-(±)-2,2-DMCPCA and incubated at 30° C. Here, 2.5 g of R-(-)-2,2-DMCPCA/h/g of protein (3.64 micromol/min/g of protein) was converted to the corresponding acid.

Row | Structure (SMILES) | hydrolase Activity ([1]; 25 °C) [g/l/h/OD650] | hydrolase Activity ([1]; 30 °C) [g/l/h/OD650] | hydrolase Activity ([1]; 37 °C) [g/l/h/OD650] | hydrolase Activity ([1]; 45 °C) [g/l/h/OD650] | hydrolase Activity ([1]; 48 °C) [g/l/h/OD650] | hydrolase Activity ([1]; 55 °C) [g/l/h/OD650] | hydrolase Activity ([1]; 65 °C) [g/l/h/OD650] | activity of the hydrolase [2] [g/1/h/OD650nm] | activity of the hydrolase [3] [g/1/h/OD650nm] | activity of the immobilized biocatalyst [4] | converted to the corresponding acid [5]
1 | CC1(C)CC1C(N)=O (racemic) [R,S-(±)-2,2-DMCPCA, R,S-(±)-2,2-dimethylcyclopropanecarboxamide] | 0.25 | 0.5 | 1.0 | 1.5 | 1.8 | 1.9 | 0 | 0.13 | 0.34 | 1.6 micromol/min g of dry weight | 
2 | CC1(C)C[C@H]1C(N)=O [R-(-)-2,2-DMCPCA, R-(-)-2,2-dimethylcyclopropanecarboxamide] |  |  |  |  |  |  |  |  |  |  | 2.5 g/h/g of protein and 3.64 micromol/min/g of protein
